Laboratory results reported in the NIST ThermoML archive (doi:10.1021/je025630q).

Experiment: compressibility factor (dimensionless); xn = mol fraction of the nth substance listed
Conditions: Gas, Burnett expansion method

CF [fluoromethane] + O=C=O
Conditions | compressibility factor
323.15 K, 1023.9 kPa, x2 = 0.619 | 0.9523
323.15 K, 1109.6 kPa, x2 = 0.189 | 0.9349
323.15 K, 1394.9 kPa, x2 = 0.378 | 0.9259
323.15 K, 1451.1 kPa, x2 = 0.791 | 0.9369
323.15 K, 1495.6 kPa, x2 = 0.619 | 0.9293
323.15 K, 1606.1 kPa, x2 = 0.189 | 0.904
323.15 K, 2009.1 kPa, x2 = 0.378 | 0.8909
323.15 K, 2102.7 kPa, x2 = 0.791 | 0.907
323.15 K, 2158.3 kPa, x2 = 0.619 | 0.8959
323.15 K, 2286.6 kPa, x2 = 0.189 | 0.8598
323.15 K, 2838.8 kPa, x2 = 0.378 | 0.8409
323.15 K, 2997.8 kPa, x2 = 0.791 | 0.8639
323.15 K, 3058.6 kPa, x2 = 0.619 | 0.8482
323.15 K, 3176.6 kPa, x2 = 0.189 | 0.798
323.15 K, 3899.6 kPa, x2 = 0.378 | 0.7717
323.15 K, 4170 kPa, x2 = 0.791 | 0.8027
323.15 K, 4217.2 kPa, x2 = 0.619 | 0.7813
323.15 K, 4257.2 kPa, x2 = 0.189 | 0.7144
323.15 K, 5138.4 kPa, x2 = 0.378 | 0.6793
323.15 K, 5587.6 kPa, x2 = 0.619 | 0.6915
323.15 K, 5596 kPa, x2 = 0.791 | 0.7197
333.15 K, 120.3 kPa, x2 = 0.392 | 0.9924
333.15 K, 128.5 kPa, x2 = 0.793 | 0.9965
333.15 K, 130.5 kPa, x2 = 0.572 | 0.9947
333.15 K, 141.4 kPa, x2 = 0.219 | 0.9909
333.15 K, 179.8 kPa, x2 = 0.392 | 0.9911
333.15 K, 191.9 kPa, x2 = 0.793 | 0.9938
333.15 K, 194.8 kPa, x2 = 0.572 | 0.9922
333.15 K, 211.2 kPa, x2 = 0.219 | 0.9886
333.15 K, 268.3 kPa, x2 = 0.392 | 0.9879
333.15 K, 286.2 kPa, x2 = 0.793 | 0.9901
333.15 K, 290.4 kPa, x2 = 0.572 | 0.9884
333.15 K, 314.8 kPa, x2 = 0.219 | 0.9843
333.15 K, 399.3 kPa, x2 = 0.392 | 0.9824
333.15 K, 426 kPa, x2 = 0.793 | 0.9846
333.15 K, 432.2 kPa, x2 = 0.572 | 0.9824
333.15 K, 467.7 kPa, x2 = 0.219 | 0.977
333.15 K, 592.5 kPa, x2 = 0.392 | 0.9737
333.15 K, 632.5 kPa, x2 = 0.793 | 0.9765
333.15 K, 641.1 kPa, x2 = 0.572 | 0.9736
333.15 K, 692.1 kPa, x2 = 0.219 | 0.9657
333.15 K, 874.8 kPa, x2 = 0.392 | 0.9605
333.15 K, 935.3 kPa, x2 = 0.793 | 0.9647
333.15 K, 946.8 kPa, x2 = 0.572 | 0.9606
333.15 K, 1017.9 kPa, x2 = 0.219 | 0.9489
333.15 K, 1282.7 kPa, x2 = 0.392 | 0.9408
333.15 K, 1375.1 kPa, x2 = 0.793 | 0.9475
333.15 K, 1389.2 kPa, x2 = 0.572 | 0.9416
333.15 K, 1484.9 kPa, x2 = 0.219 | 0.9247
333.15 K, 1863.4 kPa, x2 = 0.392 | 0.913
333.15 K, 2004.2 kPa, x2 = 0.793 | 0.9226
333.15 K, 2018.3 kPa, x2 = 0.572 | 0.9138
333.15 K, 2137.2 kPa, x2 = 0.219 | 0.8891
333.15 K, 2666.7 kPa, x2 = 0.392 | 0.8729
333.15 K, 2882 kPa, x2 = 0.793 | 0.8863
333.15 K, 2888.7 kPa, x2 = 0.572 | 0.8738
333.15 K, 3016.4 kPa, x2 = 0.219 | 0.8383
333.15 K, 3728.6 kPa, x2 = 0.392 | 0.8154
333.15 K, 4045.3 kPa, x2 = 0.572 | 0.8174
333.15 K, 4063.7 kPa, x2 = 0.793 | 0.8348
333.15 K, 4136 kPa, x2 = 0.219 | 0.7679
333.15 K, 5046.6 kPa, x2 = 0.392 | 0.7372
333.15 K, 5488.2 kPa, x2 = 0.572 | 0.7409
333.15 K, 5565.8 kPa, x2 = 0.793 | 0.7639
343.15 K, 125.5 kPa, x2 = 0.402 | 0.9971
343.15 K, 125.6 kPa, x2 = 0.787 | 0.996
343.15 K, 128.3 kPa, x2 = 0.591 | 0.9967
343.15 K, 135.4 kPa, x2 = 0.18 | 0.9953
343.15 K, 187.3 kPa, x2 = 0.402 | 0.9939
343.15 K, 187.7 kPa, x2 = 0.787 | 0.9941
343.15 K, 191.6 kPa, x2 = 0.591 | 0.9938
343.15 K, 202 kPa, x2 = 0.18 | 0.9914
343.15 K, 279.1 kPa, x2 = 0.402 | 0.9895
343.15 K, 280.1 kPa, x2 = 0.787 | 0.9911
343.15 K, 285.7 kPa, x2 = 0.591 | 0.9901
343.15 K, 300.8 kPa, x2 = 0.18 | 0.9865
343.15 K, 415.1 kPa, x2 = 0.402 | 0.9834
343.15 K, 417.3 kPa, x2 = 0.787 | 0.9864
343.15 K, 425.2 kPa, x2 = 0.591 | 0.9845
343.15 K, 447 kPa, x2 = 0.18 | 0.9794
343.15 K, 615.9 kPa, x2 = 0.402 | 0.9747
343.15 K, 620.2 kPa, x2 = 0.787 | 0.9794
343.15 K, 631.2 kPa, x2 = 0.591 | 0.9764
343.15 K, 662 kPa, x2 = 0.18 | 0.969
343.15 K, 910 kPa, x2 = 0.402 | 0.962
343.15 K, 918.6 kPa, x2 = 0.787 | 0.9691
343.15 K, 933.5 kPa, x2 = 0.591 | 0.9646
343.15 K, 975.3 kPa, x2 = 0.18 | 0.9536
343.15 K, 1336.1 kPa, x2 = 0.402 | 0.9436
343.15 K, 1353.5 kPa, x2 = 0.787 | 0.9539
343.15 K, 1372.4 kPa, x2 = 0.591 | 0.9474
343.15 K, 1426.1 kPa, x2 = 0.18 | 0.9315
343.15 K, 1943.4 kPa, x2 = 0.402 | 0.9169
343.15 K, 1979.2 kPa, x2 = 0.787 | 0.9318
343.15 K, 1999.6 kPa, x2 = 0.591 | 0.9222
343.15 K, 2061.5 kPa, x2 = 0.18 | 0.8996
343.15 K, 2787.5 kPa, x2 = 0.402 | 0.8786
343.15 K, 2861 kPa, x2 = 0.787 | 0.8998
343.15 K, 2876.3 kPa, x2 = 0.591 | 0.8861
343.15 K, 2930.2 kPa, x2 = 0.18 | 0.8542
343.15 K, 3914.8 kPa, x2 = 0.402 | 0.8243
343.15 K, 4057.2 kPa, x2 = 0.591 | 0.835
343.15 K, 4064.7 kPa, x2 = 0.18 | 0.7916
343.15 K, 4064.8 kPa, x2 = 0.787 | 0.8541
343.15 K, 5337.5 kPa, x2 = 0.402 | 0.7508
343.15 K, 5565.1 kPa, x2 = 0.591 | 0.7652
343.15 K, 5631.7 kPa, x2 = 0.787 | 0.7905
